Assay results as given in patent US8623593B1, “GPR 17 agonists and screening assay” (Rheinische Friedrich-Wilhelms-Universität Bonn, priority 2011, dated 2014).
Where two headings read alike, the source gives them in different places.

Experiments:
[1] = target: T1, human GPR17 (hGPR17) (Homo sapiens, UniProt Q13304); test: calcium mobilization assay in 1321N1-GPR17 cells; format: cell-based; parameters: expressed in transfected cells; host or cells: 1321N1 human astrocytoma cells, retroviral transfection with pLXSN-GPR17, G418 selection
Procedure: The sequence for the human GPR17 (short isoform) was subcloned into the vector pLXSN (Clontech Laboratories, CA 94043, USA), which can be used for retroviral transfection of the human astrocytoma cell line 1321N1. […] For the retroviral transfection of 1321N1 astrocytoma cells the packaging cell line GP+envAM12 was cultivated in HXM medium (50 ml of foetal calf serum (FCS), 5 ml of penicillin G/streptomycin solution (final concentration 100 U/ml penicillin, 100 μg/ml streptomycin), 1% ultra glutamine, 0.75 ml of hypoxanthine (10 mg/ml), 12.5 ml of xanthine (10 mg/ml), 1.25 ml of mycophenolic acid (10 mg/ml) and 2 ml of hygromycin B (50 mg/ml) were added to 500 ml DMEM). One day before transfection 1.5×10^6 cells were seeded and incubated overnight at 37° C., 5% CO2 and 95% humidity in a 25 cm^2 cell culture flask containing medium without antibiotics. For at least two hours before transfection the medium was exchanged for 6.25 ml DMEM medium without any additive. Two solutions were prepared for the transfection. The first solution consisted of 25 μl of Lipofectamine™ 2000 (final concentration 2%) and 600 μl of DMEM medium without any additives while the second solution was composed of 6.25 μg of pLXSN-GPR17 and 3.75 μg of pLXSN-VSV-G vector DNA. The second solution was filled up with DMEM medium without any additives. Solution one was incubated for 5 min at room temperature before both solutions were combined and incubated for 20 min, also at room temperature. Afterwards the sample was added to the packaging cell line and incubated for 12-15 h. The medium was then replaced with 3 ml of fresh medium containing 30 μl of a 500 mM sodium butyrate solution. The virus production was stimulated by sodium butyrate and took place by incubation for 48 h at 32° C. and 95% humidity. One day before infection 500,000 of 1321N1 astrocytoma cells were seeded in a 25 cm^2 cell culture flask. After 48 h of virus production, the retroviruses were harvested and sterilised by filtration through a filter with a pore size of […]. The host cell medium was replaced with the sterilized virus supernatant containing 6 μl of polybrene solution (4 mg/ml) and the infection of the host cells took place for further 48 h of incubation at 37° C., 95% humidity and 5% CO2. After incubation, the transfected cells were transferred to a 175 cm^2 cell culture flask and selected by adding medium containing G418. The efficiency of infection and stable transfection using this method was up to 95%.
PLC activation and IP3 accumulation result in a release of calcium from intracellular calcium stores, for example the endoplasmic reticulum. In order to detect the released calcium, cells are loaded with a cell membrane permeable dye, which is converted within the cell into its active form by the cleavage of ester bonds. The active form of the dye binds the released calcium. The fluorescence properties of the dye change after calcium binds to the dye. These changes can be detected automatically and represent the ligand-dependent receptor activation. Cells from two confluently grown (80 to 90%) 175 cm^2 cell culture flasks were needed for a calcium assay using the NOVOstar microplate reader (approximately 150,000 cells per well). Cells were harvested after removing the medium, washed once with PBS buffer and detached using a trypsin/EDTA solution. After incubation for 45 min at 37° C. and 5% CO2, the cells were pelleted by centrifugation (5 min, 200 g). Cells were resuspended in 994 μl of Krebs HEPES buffer (KHB; 118.6 mM NaCl, 4.7 mM KCl, 1.2 mM KH2PO4, 4.2 mM NaHCO3, 11.7 mM D-glucose, 10 mM HEPES (free acid), 1.3 mM MgSO4 and 1.2 mM CaCl2, pH 7.4) and loaded in the absence of light with fluorescent, namely Oregon Green 488 BAPTA-1/AM dye, by incubating them for one hour at 28° C. and 700 rpm in an Eppendorf Thermomixer in the presence of Pluronic F-127. Pluronic F-127 was supplemented so that the cells could better absorb the dye. […]

[2] = test system: Native 1321N1 cells; test: calcium mobilization assay, unspecific effects on native 1321N1 cells; format: cell-based, human; conditions: normalised to response of 100 μM carbachol
Description: (§1) In order to detect the released calcium, cells are loaded with a cell membrane permeable dye, which is converted within the cell into its active form by the cleavage of ester bonds. The active form of the dye binds the released calcium. The fluorescence properties of the dye change after calcium binds to the dye. These changes can be detected automatically and represent the ligand-dependent receptor activation. Cells from two confluently grown (80 to 90%) 175 cm^2 cell culture flasks were needed for a calcium assay using the NOVOstar microplate reader (approximately 150,000 cells per well). Cells were harvested after removing the medium, washed once with PBS buffer and detached using a trypsin/EDTA solution. After incubation for 45 min at 37° C. and 5% CO2, the cells were pelleted by centrifugation (5 min, 200 g). […] The cells were washed twice with 1 ml of KHB buffer (three centrifugation steps, each for 15 sec at 2700 rpm) before being seeded in a 96-well microplate in a total volume of 180 μl. A 10-fold concentrated agonist solution (35 μl) was added to another 96-well microplate with a V-profile. Both plates were placed into the NOVOstar microplate reader and incubated there for 20 min. After incubation, the required gain was determined by the microplate so that the fluorescence background of the cells was between 38,000 and 42,000 fluorescence units. This background is an optimal range for starting the measurement, because it is in the middle of the reader's detection range. Normally, the background in each well of a microplate should be the same. The background was determined by performing a so-called validation. A validation is performed to detect irregularities in cell densities between different wells, fluorescence or absorption properties as well as unspecific antagonist effects. […] Afterwards, 20 μl of agonist were injected from the source plate to the measurement plate by the injector unit of the NOVOstar, and the increase in fluorescence was determined as a function of the calcium efflux resulting from receptor stimulation.

[3] = target: T1, human GPR17 (hGPR17); test: calcium mobilization assay in CHO-GPR17 cells; format: cell-based; parameters: expressed in transfected cells; conditions: for % of response of compound (± SEM) CHO-GPR17 cells: normalised to response of 0.3 μM RA-II-150; for pEC50 (± SEM) CHO-GPR17: calcium mobilization, CHO-GPR17 cells
Description: In order to investigate potential differences in receptor signalling as a function of the cellular background, GPR17 was additionally expressed and analysed in a further cell system. Therefore, a recombinant Chinese hamster ovary (CHO) cell line stably expressing GPR17 was generated using the Flp-In™ T-Rex™ expression system. Here, expression of GPR17 was induced after adding doxycycline.
as §1

[4] = test system: CHO-K1 cells; test: calcium mobilization assay, unspecific effects on native CHO-K1 cells; format: cell-based, Chinese hamster; conditions: normalised to response of 100 μM ATP
Description: as §1

[5] = solubility in solvents; format: physicochemical
[6] = calcium mobilization, 1321N1-GPR17 cells
[7] = 30 μM compound, normalised to response of 30 μM RA-II-150

T1 sequence (Q13304 29-367): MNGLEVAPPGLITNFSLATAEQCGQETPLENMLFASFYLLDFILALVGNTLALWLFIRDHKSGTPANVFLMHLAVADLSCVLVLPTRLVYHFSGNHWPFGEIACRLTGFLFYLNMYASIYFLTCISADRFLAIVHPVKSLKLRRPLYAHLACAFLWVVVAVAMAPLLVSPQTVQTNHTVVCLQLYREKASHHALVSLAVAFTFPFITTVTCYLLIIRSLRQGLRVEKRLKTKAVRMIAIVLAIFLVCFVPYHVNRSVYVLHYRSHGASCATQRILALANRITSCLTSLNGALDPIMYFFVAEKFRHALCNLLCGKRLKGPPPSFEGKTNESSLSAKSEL

SMILES | pEC50 (± SEM) 1321N1-GPR17 [1, 6] | % of response of 30 μM compound (± SEM) 1321N1-GPR17 [1, 7] | % response of 30 μM compound (± SEM) Native 1321N1 cells [2] | pEC50 (± SEM) CHO-GPR17 [3] | also measured
O=C(O)CCc1c(C(=O)O)[nH]c2cc(Br)ccc12 [3-(2-Carboxyethyl)-6-bromo-1H-indole-2-carboxylic acid] | 5.50 |  |  |  | 
O=C(O)CCc1c(C(=O)O)[nH]c2cc(I)ccc12 [3-(2-Carboxyethyl)-6-iodo-1H-indole-2-carboxylic acid] | 6.15 |  |  |  | 
O=C(O)CCc1c(C(=O)O)[nH]c2cc(Cl)ccc12 [3-(2-Carboxyethyl)-6-chloro-1H-indole-2-carboxylic acid] | 5.43 (0.14) | 84 (6) % | 4 (3) % | 7.69 (0.10) | % of response of compound (± SEM) CHO-GPR17 cells ([3]; 1 μM compound): 94 (7) %; % response of compound (± SEM) CHO-K1 cells ([4]; 0.3 μM compound): 1 (2) %
O=C(O)CCc1c(C(=O)O)[nH]c2cc(F)cc(F)c12 [3-(2-Carboxyethyl)-4,6-difluoro-1H-indole-2-carboxylic acid] | 5.13 (0.13) | 77 (2) % | 2 (1) % | 6.79 (0.10) | % of response of compound (± SEM) CHO-GPR17 cells ([3]; 3 μM compound): 97 (5) %; % response of compound (± SEM) CHO-K1 cells ([4]; 3 μM compound): 1 (2) %
O=C(O)CCc1c(C(=O)O)[nH]c2cc(I)cc(I)c12 [3-(2-Carboxyethyl)-4,6-diiodo-1H-indole-2-carboxylic acid] | 5.32 |  |  |  | 
O=C(O)CCc1c(C(=O)O)[nH]c2cc(-c3ccccc3)ccc12 [3-(2-Carboxyethyl)-6-phenyl-1H-indole-2-carboxylic acid] | 6.14 |  |  |  | 
Cc1cc(C)c2c(CCC(=O)O)c(C(=O)O)[nH]c2c1 [3-(2-Carboxyethyl)-4,6-dimethyl-1H-indole-2-carboxylic acid] | 4.86 (0.10) | 76 (6) % | 1 (1)/1 (1) (1 μM compound) % | 6.47 (0.05) | % of response of compound (± SEM) CHO-GPR17 cells ([3]; 1 μM compound): 68 (2) %; % response of compound (± SEM) CHO-K1 cells ([4]; 1 μM compound): 1 (1)/1 (1) (1 μM compound) %
O=C(O)CCc1c(C(=O)O)[nH]c2cc(Br)cc(Br)c12 [3-(2-Carboxyethyl)-4,6-dibromo-1H-indole-2-carboxylic acid] | 6.71 (0.01) |  | 0 (1) % | 7.87 (0.16) | solubility in methanol, ethanol and ethyl acetate ([5]; methanol, ethanol, ethyl acetate): well soluble; solubility in petrol ether, water, hexane ([5]; petrol ether, water, hexane): slightly soluble; % of response of compound (± SEM) 1321N1-GPR17 ([1]; 10 μM compound, normalised to response of 30 μM RA-II-150): 106 (1) %; % of response of compound (± SEM) CHO-GPR17 cells ([3]; 0.3 μM compound): 89 (2) %; % response of compound (± SEM) CHO-K1 cells ([4]; 0.3 μM compound): 0 (0) %
O=C(O)CCc1c(C(=O)O)n(CCC(=O)O)c2cc(Cl)cc(Cl)c12 |  | 80 (6) % | 1 (1)/1 (1) (1 μM compound) % |  | % of response of compound (± SEM) CHO-GPR17 cells ([3]; 1 μM compound): 85 (5) %; % response of compound (± SEM) CHO-K1 cells ([4]; 1 μM compound): 1 (1)/1 (1) (1 μM compound) %
O=C(O)CCc1c(C(=O)O)[nH]c2cc(Cl)cc(Cl)c12 [RA-II-150, 3-(2-carboxyethyl)-4,6-dichloro-1H-indole-2-carboxylic acid] |  |  | 0 (3) % | 6.09 (0.06)/ 8.20 (0.08) | % of response of 30 μM compound (± SEM) 1321N1-GPR17 [1]: 100 (0)/100 (0) (0.3 μM compound) %; pEC50 (± SEM) 1321N1-GPR17 [1]: 6.09 (0.06)/ 8.20 (0.08); % of response of compound (± SEM) CHO-GPR17 cells ([3]; 0.3 μM compound): 100 (0)/100 (0) (0.3 μM compound) %; % response of compound (± SEM) CHO-K1 cells ([4]; 0.1 μM compound): 0 (1) %
O=C(O)CCc1c(C(=O)O)[nH]c2cc(-c3ccccc3)cc(-c3ccccc3)c12 [3-(2-Carboxyethyl)-4,6-diphenyl-1H-indole-2-carboxylic acid] | 5.52 |  |  |  | 
